In paper PMC5218480 (PLoS ONE, 2017):

System: MV-4-11 cells
Experiment: Gene expression microarray analysis (Affymetrix PrimeView) and GSEA
Format: cell-based, human
Set-up: RFU PODN (11730768_x_at) / Fold change /veh PODN (11730768_x_at) / RFU LINC00158 (11744669_a_at) / Fold change /veh LINC00158 (11744669_a_at) / RFU DUSP10 (11751237_a_at) / Fold change /veh DUSP10 (11751237_a_at) / RFU ID3 (11757404_x_at) / Fold change /veh ID3 (11757404_x_at) / RFU PLEKHG5 (11737974_s_at) / Fold change /veh PLEKHG5 (11737974_s_at) / RFU LRRC4B (11730491_at) / Fold change /veh LRRC4B (11730491_at) / RFU GIMAP4 (11747438_a_at) / Fold change /veh GIMAP4 (11747438_a_at) / RFU KRT8 (11758183_x_at) / Fold change /veh KRT8 (11758183_x_at) / RFU CNN1 (11734310_a_at) / Fold change /veh CNN1 (11734310_a_at) / RFU VPS37D (11726825_at) / Fold change /veh VPS37D (11726825_at) / RFU C10orf10 (11716522_x_at) / Fold change /veh C10orf10 (11716522_x_at) / RFU KIR2DL2 /// KIR2DL4 /// KIR2DL5A /// KIR2DL5B /// KIR2DS1 /// KIR2DS2 /// KIR2DS3 /// KIR2DS4 /// KIR3DL3 /// KIR3DL3 /// KIR3DS1 (11738374_at) / Fold change /veh KIR2DL2 /// KIR2DL4 /// KIR2DL5A /// KIR2DL5B /// KIR2DS1 /// KIR2DS2 /// KIR2DS3 /// KIR2DS4 /// KIR3DL3 /// KIR3DL3 /// KIR3DS1 (11738374_at) / RFU C1QL1 (11718748_at) / Fold change /veh C1QL1 (11718748_at) / RFU TMPRSS4 (11747572_a_at) / Fold change /veh TMPRSS4 (11747572_a_at) / RFU HAMP (11756126_x_at) / Fold change /veh HAMP (11756126_x_at) / RFU RNFT2 (11725882_a_at) / Fold change /veh RNFT2 (11725882_a_at) / RFU NR4A2 (11747474_a_at) / Fold change /veh NR4A2 (11747474_a_at) / RFU ABCC12 (11746883_a_at) / Fold change /veh ABCC12 (11746883_a_at) / RFU TMEM136 (11760407_x_at) / Fold change /veh TMEM136 (11760407_x_at) / RFU CLDN22 /// WWC2 (11732394_at) / Fold change /veh CLDN22 /// WWC2 (11732394_at) / RFU HLA-DPB1 (11760878_x_at) / Fold change /veh HLA-DPB1 (11760878_x_at) / RFU SPINT1 (11716480_a_at) / Fold change /veh SPINT1 (11716480_a_at) / RFU GAP43 (11754022_s_at) / Fold change /veh GAP43 (11754022_s_at) / RFU A4GNT (11735810_at) / Fold change /veh A4GNT (11735810_at) / RFU PRB3 (11715151_x_at) / Fold change /veh PRB3 (11715151_x_at) / RFU TUBB4B (11761932_at) / Fold change /veh TUBB4B (11761932_at) / RFU CAPN14 (11732068_a_at) / Fold change /veh CAPN14 (11732068_a_at) / RFU TMCC2 (11721928_a_at) / Fold change /veh TMCC2 (11721928_a_at) / RFU IRGQ (11745062_a_at) / Fold change /veh IRGQ (11745062_a_at) / RFU FAM174B (11720279_a_at) / Fold change /veh FAM174B (11720279_a_at) / RFU TMPRSS4 (11748680_a_at) / Fold change /veh TMPRSS4 (11748680_a_at) / RFU FAM212B (11763350_a_at) / Fold change /veh FAM212B (11763350_a_at) / RFU PLEKHG5 (11743358_a_at) / Fold change /veh PLEKHG5 (11743358_a_at) / RFU ZSCAN30 (11745921_a_at) / Fold change /veh ZSCAN30 (11745921_a_at) / RFU CMKLR1 (11741424_a_at) / Fold change /veh CMKLR1 (11741424_a_at) / RFU LOC101060620 /// MAPK8IP1 (11723275_at) / Fold change /veh LOC101060620 /// MAPK8IP1 (11723275_at) / RFU SPTSSB (11747773_x_at) / Fold change /veh SPTSSB (11747773_x_at) / RFU PRSS12 (11739890_at) / Fold change /veh PRSS12 (11739890_at) / RFU BIN1 (11741810_x_at) / Fold change /veh BIN1 (11741810_x_at) / RFU WNT11 (11732464_a_at) / Fold change /veh WNT11 (11732464_a_at) / RFU C10orf10 (11716521_a_at) / Fold change /veh C10orf10 (11716521_a_at) / RFU C5orf56 (11738089_at) / Fold change /veh C5orf56 (11738089_at) / RFU CYB561 (11721691_x_at) / Fold change /veh CYB561 (11721691_x_at) / RFU ANKRD19P (11752326_a_at) / Fold change /veh ANKRD19P (11752326_a_at) / RFU OR2T12 /// OR2T33 /// OR2T8 (11738714_s_at) / Fold change /veh OR2T12 /// OR2T33 /// OR2T8 (11738714_s_at) / RFU VCAN (11748164_a_at) / Fold change /veh VCAN (11748164_a_at) / RFU JSRP1 (11732532_at) / Fold change /veh JSRP1 (11732532_at) / RFU KRTAP10-11 (11738290_x_at) / Fold change /veh KRTAP10-11 (11738290_x_at) / RFU MYO3A (11730013_a_at) / Fold change /veh MYO3A (11730013_a_at) / RFU EBF3 (11725865_a_at) / Fold change /veh EBF3 (11725865_a_at) / RFU CAMK2N1 (11719241_x_at) / Fold change /veh CAMK2N1 (11719241_x_at) / RFU C5orf56 (11738088_a_at) / Fold change /veh C5orf56 (11738088_a_at) / RFU OLFML3 (11715873_a_at) / Fold change /veh OLFML3 (11715873_a_at) / RFU LOC100653217 /// NTM (11731650_a_at) / Fold change /veh LOC100653217 /// NTM (11731650_a_at) / RFU MAPK11 (11762145_a_at) / Fold change /veh MAPK11 (11762145_a_at) / RFU FIZ1 (11724087_x_at) / Fold change /veh FIZ1 (11724087_x_at) / RFU OASL (11726364_x_at) / Fold change /veh OASL (11726364_x_at) / RFU SOX15 (11748057_x_at) / Fold change /veh SOX15 (11748057_x_at) / RFU CD79A (11719716_a_at) / Fold change /veh CD79A (11719716_a_at) / RFU HIST1H1D (11736915_at) / Fold change /veh HIST1H1D (11736915_at) / RFU CASKIN2 (11723855_a_at) / Fold change /veh CASKIN2 (11723855_a_at) / RFU LOC730098 (11760151_x_at) / Fold change /veh LOC730098 (11760151_x_at) / RFU OR4N2 (11742367_at) / Fold change /veh OR4N2 (11742367_at) / RFU PRRT2 (11749266_a_at) / Fold change /veh PRRT2 (11749266_a_at) / RFU SNX32 (11753110_a_at) / Fold change /veh SNX32 (11753110_a_at) / RFU CDHR5 (11726645_a_at) / Fold change /veh CDHR5 (11726645_a_at) / RFU RCAN1 (11760418_a_at) / Fold change /veh RCAN1 (11760418_a_at) / RFU FAM167A (11723789_a_at) / Fold change /veh FAM167A (11723789_a_at) / RFU FAM26E (11764081_at) / Fold change /veh FAM26E (11764081_at) / RFU ISYNA1 (11749810_s_at) / Fold change /veh ISYNA1 (11749810_s_at) / RFU ACY1 (11761880_at) / Fold change /veh ACY1 (11761880_at) / RFU 11764098_at / Fold change /veh 11764098_at / RFU SAMD14 (11745864_x_at) / Fold change /veh SAMD14 (11745864_x_at) / RFU NPB (11741838_a_at) / Fold change /veh NPB (11741838_a_at) / RFU TMPRSS6 (11731388_a_at) / Fold change /veh TMPRSS6 (11731388_a_at) / RFU KRTAP10-2 (11738614_at) / Fold change /veh KRTAP10-2 (11738614_at) / RFU ARHGAP8 /// PRR5-ARHGAP8 (11727945_x_at) / Fold change /veh ARHGAP8 /// PRR5-ARHGAP8 (11727945_x_at) / RFU KRTAP5-7 /// NADSYN1 (11734609_at) / Fold change /veh KRTAP5-7 /// NADSYN1 (11734609_at) / RFU RASL12 (11751679_a_at) / Fold change /veh RASL12 (11751679_a_at) / RFU CDKN2B (11736163_a_at) / Fold change /veh CDKN2B (11736163_a_at) / RFU PRF1 (11729649_at) / Fold change /veh PRF1 (11729649_at) / RFU, ZNF638 /// ZNF638-IT1 / Fold change vs veh, ZNF638 /// ZNF638-IT1 / RFU, PANK3 / Fold change vs veh, PANK3 / RFU, SH3YL1 / Fold change vs veh, SH3YL1 / RFU, ZEB2 / Fold change vs veh, ZEB2 / RFU, NRIP1 / Fold change vs veh, NRIP1 / RFU, PTTG1IP / Fold change vs veh, PTTG1IP / RFU, CAPN2 / Fold change vs veh, CAPN2 / RFU, MED14 / Fold change vs veh, MED14 / RFU, SNORA58 / Fold change vs veh, SNORA58 / RFU, C1orf63 / Fold change vs veh, C1orf63 / RFU, LRRFIP1 / Fold change vs veh, LRRFIP1 / RFU, NDUFAF7 / Fold change vs veh, NDUFAF7 / RFU, SLC12A2 / Fold change vs veh, SLC12A2 / RFU, IBTK / Fold change vs veh, IBTK / RFU, ESF1 / Fold change vs veh, ESF1 / Fold change vs veh, TMEM50B / RFU, TAOK1 / Fold change vs veh, TAOK1 / RFU, ACBD3 / Fold change vs veh, ACBD3 / RFU, TMA16 / Fold change vs veh, TMA16 / RFU, RWDD3 / Fold change vs veh, RWDD3 / RFU, BCAT1 / Fold change vs veh, BCAT1 / RFU, EDEM3 / Fold change vs veh, EDEM3 / RFU, TMEM33 / Fold change vs veh, TMEM33 / RFU, WDR75 / Fold change vs veh, WDR75 / RFU, AHCTF1 / Fold change vs veh, AHCTF1 / RFU, TFRC / Fold change vs veh, TFRC / RFU, ZDHHC17 / Fold change vs veh, ZDHHC17 / RFU, NOM1 / Fold change vs veh, NOM1 / RFU, ARL8B / Fold change vs veh, ARL8B / RFU, ZBTB11 / Fold change vs veh, ZBTB11 / RFU, TAMM41 / Fold change vs veh, TAMM41 / RFU, KIAA1704 /// LOC100996395 / Fold change vs veh, KIAA1704 /// LOC100996395 / RFU, ING1 / Fold change vs veh, ING1 / RFU, TRMT61B / Fold change vs veh, TRMT61B / RFU, FUBP3 / Fold change vs veh, FUBP3 / RFU, TP53 / Fold change vs veh, TP53 / RFU, TNKS2 / Fold change vs veh, TNKS2 / RFU, ZFP14 / Fold change vs veh, ZFP14 / RFU, ACTR2 / Fold change vs veh, ACTR2 / RFU, PPP3R1 / Fold change vs veh, PPP3R1 / RFU, PIK3R1 / Fold change vs veh, PIK3R1 / RFU, HNRNPA1 / Fold change vs veh, HNRNPA1 / RFU, RNF170 / Fold change vs veh, RNF170 / RFU, ZNF28 / Fold change vs veh, ZNF28 / RFU, RNGTT / Fold change vs veh, RNGTT / RFU, OGT / Fold change vs veh, OGT / RFU, BRD1 / Fold change vs veh, BRD1 / RFU, MARS / Fold change vs veh, MARS / RFU, ZNF655 / Fold change vs veh, ZNF655 / RFU, FAHD1 / Fold change vs veh, FAHD1 / RFU, BDP1 / Fold change vs veh, BDP1 / RFU, LRRCC1 / Fold change vs veh, LRRCC1 / RFU, ARID1A / Fold change vs veh, ARID1A / RFU, ZNF146 / Fold change vs veh, ZNF146 / RFU, ZNF330 / Fold change vs veh, ZNF330 / RFU, GPN3 / Fold change vs veh, GPN3 / RFU, C9orf123 / Fold change vs veh, C9orf123 / RFU, N4BP2L2 / Fold change vs veh, N4BP2L2 / RFU, ARFIP1 / Fold change vs veh, ARFIP1 / RFU, FAM179B / Fold change vs veh, FAM179B / RFU, BCL10 / Fold change vs veh, BCL10 / RFU, UHRF1BP1L / Fold change vs veh, UHRF1BP1L / RFU, BET1 / Fold change vs veh, BET1 / RFU, CNOT2 / Fold change vs veh, CNOT2 / RFU, ZNF268 / Fold change vs veh, ZNF268 / Fold change vs veh, ZNF507 / RFU, DGCR2 / Fold change vs veh, DGCR2 / RFU, WDSUB1 / Fold change vs veh, WDSUB1 / Fold change vs veh, HSP90B1 /// MIR3652 / RFU, ADSS / Fold change vs veh, ADSS / RFU, GK / Fold change vs veh, GK / RFU, ZNF148 / Fold change vs veh, ZNF148 / RFU, TAF9 / Fold change vs veh, TAF9 / RFU, SLC1A5 / Fold change vs veh, SLC1A5 / RFU, SLMO2 / Fold change vs veh, SLMO2 / RFU, ABCC4 / Fold change vs veh, ABCC4 / RFU, LOC101060439 /// RAP1B / Fold change vs veh, LOC101060439 /// RAP1B / RFU, RFX7 / Fold change vs veh, RFX7 / RFU, GTPBP10 / Fold change vs veh, GTPBP10 / RFU, CNEP1R1 / Fold change vs veh, CNEP1R1 / RFU, BIVM-ERCC5 /// ERCC5 / Fold change vs veh, BIVM-ERCC5 /// ERCC5 / RFU, ILF3 / Fold change vs veh, ILF3 / RFU 11762660_at / Fold change /veh 11762660_at / RFU VCAN (11757783_s_at) / Fold change /veh VCAN (11757783_s_at) / RFU DDX43 (11728927_at) / Fold change /veh DDX43 (11728927_at) / RFU KRT8 (11758188_x_at) / Fold change /veh KRT8 (11758188_x_at) / RFU NKD1 (11759106_at) / Fold change /veh NKD1 (11759106_at) / RFU SRD5A1 (11742802_a_at) / Fold change /veh SRD5A1 (11742802_a_at) / RFU TPSAB1 /// TPSB2 (11721975_s_at) / Fold change /veh TPSAB1 /// TPSB2 (11721975_s_at) / RFU GSTM3 (11746129_a_at) / Fold change /veh GSTM3 (11746129_a_at) / RFU IL23R (11737362_x_at) / Fold change /veh IL23R (11737362_x_at) / RFU TMEM51 (11727254_a_at) / Fold change /veh TMEM51 (11727254_a_at) / RFU PIWIL2 (11732686_x_at) / Fold change /veh PIWIL2 (11732686_x_at) / RFU ORM1 (11744905_x_at) / Fold change /veh ORM1 (11744905_x_at) / RFU CCDC152 (11743942_at) / Fold change /veh CCDC152 (11743942_at) / RFU ECM1 (11717891_a_at) / Fold change /veh ECM1 (11717891_a_at) / RFU IL23R (11748794_a_at) / Fold change /veh IL23R (11748794_a_at) / RFU TNFAIP8L3 (11732012_x_at) / Fold change /veh TNFAIP8L3 (11732012_x_at) / RFU MBOAT4 (11741988_at) / Fold change /veh MBOAT4 (11741988_at) / RFU 11764193_at / Fold change /veh 11764193_at / RFU TMEM53 (11763286_at) / Fold change /veh TMEM53 (11763286_at) / RFU MAGEB2 (11727129_at) / Fold change /veh MAGEB2 (11727129_at) / RFU TMEM200A (11744735_a_at) / Fold change /veh TMEM200A (11744735_a_at) / RFU CCDC152 (11751479_a_at) / Fold change /veh CCDC152 (11751479_a_at) / RFU FAM211A (11726209_a_at) / Fold change /veh FAM211A (11726209_a_at) / RFU RGS16 (11746705_a_at) / Fold change /veh RGS16 (11746705_a_at) / RFU VCAN (11755009_s_at) / Fold change /veh VCAN (11755009_s_at) / RFU RHOB (11743442_s_at) / Fold change /veh RHOB (11743442_s_at) / RFU RGS16 (11720943_a_at) / Fold change /veh RGS16 (11720943_a_at) / RFU RGS16 (11720944_at) / Fold change /veh RGS16 (11720944_at) / RFU, VPS4B / Fold change vs veh, VPS4B / RFU, CREB1 / Fold change vs veh, CREB1 / RFU, DNAJC13 / Fold change vs veh, DNAJC13 / RFU, GNAQ / Fold change vs veh, GNAQ / RFU, CDK5R1 / Fold change vs veh, CDK5R1 / RFU, ZRANB3 / Fold change vs veh, ZRANB3 / RFU, CUL4A / Fold change vs veh, CUL4A / RFU, CCNY / Fold change vs veh, CCNY / RFU, UFL1 / Fold change vs veh, UFL1 / RFU, COG3 / Fold change vs veh, COG3 / RFU, DIAPH2 / Fold change vs veh, DIAPH2 / RFU, SKA2 / Fold change vs veh, SKA2 / RFU, AFF3 / Fold change vs veh, AFF3 / RFU, LMF1 / Fold change vs veh, LMF1 / RFU, IPO11 / Fold change vs veh, IPO11 / RFU, DFFB / Fold change vs veh, DFFB / RFU, FOXP1 / Fold change vs veh, FOXP1 / RFU, CARD8 / Fold change vs veh, CARD8 / RFU, STRN3 / Fold change vs veh, STRN3 / RFU, ADK / Fold change vs veh, ADK / RFU, RASSF2 / Fold change vs veh, RASSF2 / RFU, WIPF1 / Fold change vs veh, WIPF1 / RFU, LARP1B / Fold change vs veh, LARP1B / RFU, RASA1 / Fold change vs veh, RASA1 / RFU, RB1 / Fold change vs veh, RB1 / RFU, PPFIA1 / Fold change vs veh, PPFIA1 / RFU, MAT2A / Fold change vs veh, MAT2A / RFU, CCT5 / Fold change vs veh, CCT5 / RFU, WDR92 / Fold change vs veh, WDR92 / RFU, CUX1 / Fold change vs veh, CUX1 / RFU, TTC7A / Fold change vs veh, TTC7A / RFU, TMEM135 / Fold change vs veh, TMEM135 / RFU, DEPTOR / Fold change vs veh, DEPTOR / RFU, CPM / Fold change vs veh, CPM / RFU, DNAJB6 / Fold change vs veh, DNAJB6 / RFU, CACNA2D3 / Fold change vs veh, CACNA2D3 / RFU, DTX4 / Fold change vs veh, DTX4 / RFU, TFCP2 / Fold change vs veh, TFCP2 / RFU, GMCL1 /// GMCL1P1 / Fold change vs veh, GMCL1 /// GMCL1P1 / RFU, AEBP2 / Fold change vs veh, AEBP2 / RFU, SNHG1 /// SNORD22 /// SNORD25 /// SNORD26 /// SNORD27 /// SNORD28 /// SNORD29 /// SNORD31 / Fold change vs veh, SNHG1 /// SNORD22 /// SNORD25 /// SNORD26 /// SNORD27 /// SNORD28 /// SNORD29 /// SNORD31 / Fold change (Aza/veh), C12orf56 (ProbeSet 11735607_a_at) / Fold change (ACY-1035/veh), C12orf56 (ProbeSet 11735607_a_at) / Fold change (Aza/veh), FGFR1OP (ProbeSet 11751329_s_at) / Fold change (ACY-1035/veh), FGFR1OP (ProbeSet 11751329_s_at) / Fold change (Aza/veh), VPS36 (ProbeSet 11739960_a_at) / Fold change (ACY-1035/veh), VPS36 (ProbeSet 11739960_a_at) / RFU SYPL1 (11715823_x_at) / Fold change /veh SYPL1 (11715823_x_at) / RFU IGFBP7 (11715501_s_at) / Fold change /veh IGFBP7 (11715501_s_at) / RFU REEP3 (11722064_at) / Fold change /veh REEP3 (11722064_at) / RFU IGLL1 (11728026_x_at) / Fold change /veh IGLL1 (11728026_x_at): dose or concentration left out as unconfirmed
Conditions: MV-4-11 cells, 48 hours

Nc1ccc(-c2cccs2)cc1NC(=O)c1ccc2c(c1)cc(C1CC1)n2CCN1CCOCC1 [ACY-1035]
RFU REEP3 (11722064_at): 19.86 RFU
